Counter-ions that a name gives are not always drawn. A value given as a limit tells only on which side of the number the result lay.

A word on the IC50: it is the concentration at which inhibition is half-maximal. The low end stands for greater potency in that assay, the high end for weaker potency in that assay. A word on the melting point: it is the temperature, or range, at which the solid turns liquid.

The target in one data set is T1, GPIIb-IIIa (Homo sapiens, UniProt P05106+P08514).
T1 construct: Purified platelet GPIIb-IIIa receptor was prepared as described by Fitzgerald; from tissue; host or cells: platelets
T1 sequence (P08514 32-887 limits assumed): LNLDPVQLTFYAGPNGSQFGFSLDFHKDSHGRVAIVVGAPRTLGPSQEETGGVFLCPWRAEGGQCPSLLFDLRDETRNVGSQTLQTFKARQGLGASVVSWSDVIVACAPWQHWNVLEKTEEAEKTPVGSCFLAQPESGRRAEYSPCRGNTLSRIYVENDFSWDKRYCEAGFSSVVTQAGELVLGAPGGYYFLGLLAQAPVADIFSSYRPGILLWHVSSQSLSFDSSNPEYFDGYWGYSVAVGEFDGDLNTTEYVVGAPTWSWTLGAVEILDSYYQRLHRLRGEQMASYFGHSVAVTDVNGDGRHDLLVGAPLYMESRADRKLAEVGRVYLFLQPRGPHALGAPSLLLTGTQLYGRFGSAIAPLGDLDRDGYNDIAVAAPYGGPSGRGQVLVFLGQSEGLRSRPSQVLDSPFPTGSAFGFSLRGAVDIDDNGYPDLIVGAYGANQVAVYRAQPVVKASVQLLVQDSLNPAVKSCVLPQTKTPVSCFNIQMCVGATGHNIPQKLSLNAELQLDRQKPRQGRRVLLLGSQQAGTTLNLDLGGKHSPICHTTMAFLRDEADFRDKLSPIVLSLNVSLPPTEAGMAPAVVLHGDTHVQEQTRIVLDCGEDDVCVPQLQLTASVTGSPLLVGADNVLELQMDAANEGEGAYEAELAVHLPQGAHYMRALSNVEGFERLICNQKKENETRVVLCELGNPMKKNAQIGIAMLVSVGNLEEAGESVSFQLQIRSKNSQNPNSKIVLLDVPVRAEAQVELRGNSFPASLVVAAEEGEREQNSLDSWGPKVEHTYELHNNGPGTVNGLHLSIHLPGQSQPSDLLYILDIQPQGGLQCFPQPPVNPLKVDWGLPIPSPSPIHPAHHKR
T1 sequence (P08514 891-1039 limits assumed): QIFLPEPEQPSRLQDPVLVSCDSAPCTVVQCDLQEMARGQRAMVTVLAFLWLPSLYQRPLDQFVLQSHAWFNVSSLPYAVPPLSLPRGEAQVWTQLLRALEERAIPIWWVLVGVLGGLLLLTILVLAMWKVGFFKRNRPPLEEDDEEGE
T1 sequence (P05106 27-788): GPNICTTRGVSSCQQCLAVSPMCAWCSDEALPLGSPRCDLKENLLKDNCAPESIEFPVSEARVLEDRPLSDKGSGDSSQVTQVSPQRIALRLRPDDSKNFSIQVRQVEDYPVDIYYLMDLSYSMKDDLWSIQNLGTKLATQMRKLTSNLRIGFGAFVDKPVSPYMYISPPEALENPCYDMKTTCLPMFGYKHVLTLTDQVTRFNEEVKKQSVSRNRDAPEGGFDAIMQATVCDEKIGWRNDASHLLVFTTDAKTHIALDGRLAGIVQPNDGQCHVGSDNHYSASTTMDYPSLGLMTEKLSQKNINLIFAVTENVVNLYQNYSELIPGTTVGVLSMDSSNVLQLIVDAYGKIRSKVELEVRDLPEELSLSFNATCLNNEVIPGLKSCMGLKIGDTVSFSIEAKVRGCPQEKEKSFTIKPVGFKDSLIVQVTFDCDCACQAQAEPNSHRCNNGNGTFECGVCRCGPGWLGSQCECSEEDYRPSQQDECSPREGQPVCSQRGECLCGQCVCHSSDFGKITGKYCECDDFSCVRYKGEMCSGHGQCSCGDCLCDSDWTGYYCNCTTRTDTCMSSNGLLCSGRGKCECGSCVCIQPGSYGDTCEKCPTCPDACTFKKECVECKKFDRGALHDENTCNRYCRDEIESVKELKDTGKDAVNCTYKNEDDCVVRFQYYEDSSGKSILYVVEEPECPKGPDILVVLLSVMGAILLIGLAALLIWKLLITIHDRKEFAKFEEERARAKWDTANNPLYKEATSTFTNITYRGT
Put plainly: ELISA IIb-IIIa assay (fibrinogen binding to immobilized GPIIb-IIIa). As to conditions: inhibition of biotinylated fibrinogen binding to plate-coated purified platelet GPIIb-IIIa receptor. As to the method:
No. 1—The ELISA IIb-IIIa Assay:
In the following assay, GPIIb-IIIa is prepared in purified form, by a method such as described by Fitzgerald, L. A., et al., Anal Biochem (1985) 151:169-177, (the disclosure of which is incorporated herein by reference). GPIIb-IIIa is coated onto microtiter plates. The coated support is then contacted with fibrinogen and with the test material (e.g., compounds of Formula I) and incubated for a sufficient time to permit maximal binding of fibrinogen to the immobilized GPIIb-IIIa. Fibrinogen is typically provided at a concentration of about 5-50 nM and the test material can, if desired, be added at a series of dilution. Typical incubations are 2 to 4 hours at 25° C., the time and temperature being interdependent.
After incubation, the solution containing the fibrinogen and test material is removed and the level of binding of fibrinogen measured by quantitating bound fibrinogen to GPIIb-IIIa. Any suitable means of detection may be used, but it is convenient to employ labeled fibrinogen, for example using biotinylated labels. Such methods are well known in the art.
A. Description of Assays—Plate Assays
Purified platelet GPIIb-IIIa receptor was prepared as described by Fitzgerald, L. A., et al., Anal Biochem (1985) 151:169-177 (1985). Vitronectin receptor was prepared as described by Smith, J. W., J. Biol Chem (1988) 263:18726-18731. After purification, the receptors were stored in 0.1% Triton X-100 at 0.1-1.0 mg/ml.
The receptors were coated to the wells of 96-well flat-bottom ELISA plates (Linbro EIA-Plus microtiter plate, Flow Laboratories) after diluting 1:200 with a solution of 20 mM Tris-HCl, 150 mM NaCl, 1 mM CaCl2, pH 7.4, to reduce the Triton X-100 concentration to below its critical micellar concentration and adding an aliquot of 100 ul to each well. The wells were all allowed to incubate overnight at 4° C., and then aspirated to dryness. Additional sites were blocked by the addition of bovine serum albumin (BSA) at 35 mg/ml in the above buffer for two hours at 30° C. to prevent nonspecific binding. The wells were then washed once with binding buffer ([…] Tris-HCl, 100 mM NaCl 2 mM CaCl2, 1 mg/ml BSA).
The corresponding ligands (fibrinogen, von Willebrand Factor, or vitronectin) were conjugated to biotin using commercially available reagents and standard protocols. The labeled ligands were added to the receptor-coated wells at final concentration of 10 nM (100 ul/well) and incubated for 3 hours at 25° C. in the presence or absence of the test samples. After incubation, the wells are aspirated to dryness and bound ligand is quantitated.
The bound protein is detected by the addition of antibiotin antibody conjugated to alkaline phosphatase followed by addition of substrate (p-nitrophenyl phosphate), and determination of the optical density of each well at […]. Decreased color development is observed in wells incubated with test samples which inhibit binding of ligand to receptor.
In general terms: ELISA stands for enzyme-linked immunosorbent assay.

Data set [1] concerns human platelet-rich plasma. Put plainly: Platelet aggregation assay, Aggregation-Human PRP/ADP. In kind it is cell-based. As to conditions: inhibition of ADP-induced aggregation of human platelet-rich plasma. The procedure:
No. 2—The Platelet Aggregation Assay
In addition to the ELISA IIb-IIIa assay previously described the Aggregation-Human PRP/ADP Assay is useful for evaluating therapeutic compounds.
Platelet-rich plasma was prepared from healthy human volunteers for use in determining inhibition of platelet aggregation by the compounds. Blood was collected via a 21-gauge butterfly cannula, using a two-syringe technique into 1/10 volume of 3.8% trisodium citrate.
Platelet-rich plasma was prepared at room temperature by centrifugation of the citrated whole blood at 100×g for twelve minutes. The platelet rich plasma contained approximately 200-400,000 platelets/μl.
Platelet-poor plasma was prepared by centrifugation of citrated whole blood at 12,000×g for 2 minutes.
Platelet aggregation was assayed in a 4-channel platelet aggregatiob profiler (PAP-4, Biodata, Hatboro, Pa.) according to the manufacturers directions. Inhibition of platelet aggregation was studied by adding varying amounts of adenosine diphosphate (ADP) to stirred human platelet-rich plasma. Specifically, the human platelet-rich plasma was incubated with the compound being tested for 1 minute at 37° C. prior to the addition of a variety of aggregating agents most often ADP 5 μM, but also 1 μg/ml collagen, 1 μM U46619 and 0.3 μM platelet activating factor.

With `N=C(N)c1ccc(C(=O)N2CCC3(CCN(C(=O)CCC(=O)O)CC3)CC2)cc1` [Example 41, 4-((3-(4-Aminoiminomethyl)benzoyl)-3,9-diaza-spiro[5.5]undec-9-25 yl)-4-oxobutanoic Acid], the figures for the 50% inhibitory concentration (IC50) (on GPIIb-IIIa; in data set [1]) were 15 µM and 14 µM, respectively.
Turning to `N=C(N)c1ccc(N2CC3(CCN(CCCC(=O)O)CC3)OC2=O)cc1` [Example 4, 4-(3-(4-(Aminoiminomethyl)phenyl)-2-oxo-1-oxa-3,8-diaza-5 spiro[4.5]dec-8-yl)butanoic Acid Bistrifluoroacetate], in data set [1], half-maximal inhibition (IC50) was put at 3 µM.
On to `O=C(O)CN1C(=O)CC2(CCN(CCc3ccncc3)CC2)CC1=O` [Example 26, (9-(2-(Pyridin-4-yl)ethyl)-2,4-dioxo-3,9-diazaspiro[5.5]undec-3-yl)acetic Acid Trifluoroacetate], for which the IC50 in data set [1] was above 100 µM.
The same measure, in the same setting: to `CCOC(=O)CCN1CCC2(CC1)CC(c1ccc(C(=N)N)cc1)=NO2` [Example 14, Hydrochloride] belongs 0.64 µM.
`N=C(N)c1ccc(C(=O)N2CCC3(CC2)CN(CC(=O)O)C(=O)O3)cc1` [Example 30, (8-(4-(Aminoiminomethyl)benzoyl)-2-oxo-1-oxa-3,8-diaza-spiro[4.5]dec-3-yl)acetic Acid] displayed a melting point of 157 to 159 °C. Besides, at GPIIb-IIIa, the IC50 was determined as 29 µM. The compound further had a concentration for half-maximal inhibition (IC50) in data set [1] of 80 µM.
In the case of `N=C(N)c1ccc(COC2CCC3(CC2)CN(CC(=O)O)C(=O)O3)cc1` (stereo not drawn) [Example 34, (8-(4-(Aminoiminomethyl)benzyloxy)-2-oxo-1-oxa-3-aza-spiro[4.5]dec-3-yl)acetic Acid], the IC50 at GPIIb-IIIa worked out at 0.35 µM; in data set [1], 1.29 µM.
The compound `CCOC(=O)CC1CCC2(CC1)CCN(CCC1CCNCC1)CC2` [Example 24, Ethyl (3-(2-(Piperidin-4-yl)ethyl)-3-azaspiro[5.5]undec-9-yl)acetate] showed a 50% inhibitory concentration (IC50) in data set [1] above 100 µM.
In data set [1], `CCOC(=O)CCCN1CCC2(CC1)CC(c1ccc(C(=N)N)cc1)=NO2` [Example 7, Hydrochloride] yielded an IC50 of 2.8 µM.
In data set [1], `N=C(N)c1ccc(C(=O)N2CCC3(CC2)CN(CCCC(=O)O)C(=O)CO3)cc1` [Example 12, Hydrochloride] registered a 50% inhibitory concentration (IC50) above 10 µM.
Consider `CCOC(=O)CC1CCC2(CC1)CCN(C(=O)c1ccc(C(=N)N)cc1)CC2` [Example 1, Ethyl (3-(4-(Aminoiminomethyl)benzoyl)-3-aza-spiro[5.5]undec-9-yl)acetate Hydrochloride], for which the concentration for half-maximal inhibition (IC50) at GPIIb-IIIa was above 10 µM; in data set [1] it was 100 µM.
`O=C(O)CC1CCC2(CC1)CCN(CCc1ccncc1)CC2` [Example 23, (3-(2-(Pyridin-4-yl)ethyl)-3-azaspiro[5.5]undec-9-yl)acetic Acid] showed a 50% inhibitory concentration (IC50) in data set [1] above 100 µM.
In the case of `N=C(N)c1ccc(C2=NOC3(CCN(CCC(=O)O)CC3)C2)cc1` [Example 15, 4-(3-(4-(Aminoiminomethyl)phenyl)-1-oxa-2,8-diaza-spiro[4.5]dec-2-en-8-yl)propanoic Acid], the half-maximal inhibitory concentration (IC50) in data set [1] was found to be 0.11 µM.
In the case of `N=C(N)c1ccc(CC(=O)N2CCC3(CC2)CN(CC(=O)O)C(=O)O3)cc1` [Example 31, (8-(2-(4-Aminoiminomethyl)acetyl)-2-oxo-1-oxa-3,8-diaza-spiro[4.5]dec-3-yl)acetic Acid.], the IC50 was determined as 0.074 µM at GPIIb-IIIa and 1.11 µM in data set [1].
`O=C(O)CN1CCC2(CCN(CCc3ccncc3)CC2)CC1` [Example 20, (9-(2-(Pyridin-4-yl)ethyl)-3,9-diazaspiro[5.5]undec-3-yl)acetic Acid Bistrifluoroacetate] displayed a concentration for half-maximal inhibition (IC50) in data set [1] above 100 µM.
On to `N=C(N)NCCCCC(=O)N1CCC2(CC1)CN(CC(=O)O)C(=O)O2` [Example 38], for which the results for the concentration for half-maximal inhibition (IC50) (at GPIIb-IIIa; in data set [1]) were 1.85 µM and 7 µM, respectively.
Compound `N=C(N)c1ccc(C2=NOC3(CCN(C(=O)CCC(=O)O)CC3)C2)cc1` [Example 10] gave an IC50 in data set [1] of 1 µM.
As for `N=C(N)NCCCCCC(=O)N1CCC2(CC1)CN(CC(=O)O)C(=O)O2` [Example 39], the values for the 50% inhibitory concentration (IC50) (on GPIIb-IIIa; in data set [1]) were 2.7 µM and 12 µM, respectively.
Compound `N=C(N)c1ccc(C2=NOC3(CCN(CCCC(=O)O)CC3)C2)cc1` [Example 8] returned a half-maximal inhibitory concentration (IC50) in data set [1] of 0.32 µM.
Still for that read-out and setting: to `CCOC(=O)CC1CCC2(CC1)CCN(CCc1ccncc1)CC2` [Example 22, Ethyl (3-(2-(Pyridin-4-yl)ethyl)-3-azaspiro[5.5]undec-9-yl)acetate] belongs above 100 µM.
With `N=C(N)c1ccc(C(=O)N2CCC3(CCN(CC(=O)O)C(=O)O3)CC2)cc1` [Example 33, (9-(4-(Aminoiminomethyl)benzoyl)-2-oxo-1-oxa-3,9-diaza-spiro[5.5]undec-3-yl)acetic Acid], the values for the IC50 (at GPIIb-IIIa; in data set [1]) were 16.5 µM and 66 µM, respectively.
In data set [1], `N=C(N)c1ccc(C2=NOC3(CCN(C(=O)CCCC(=O)O)CC3)C2)cc1` [Example 17] registered an IC50 of 0.084 µM.
`O=C(O)CC1CCC2(CC1)CCN(CCC1CCNCC1)CC2` [Example 25, (3-(2-(Piperidin-4-yl)ethyl)-3-azaspiro[5.5]undec-9-yl)acetic Acid]: the concentration for half-maximal inhibition (IC50) in data set [1] is above 10 µM.
As to `N=C(N)c1ccc(CC(=O)N2CCC3(CC2)CCN(CC(=O)O)C(=O)O3)cc1` [Example 32], the IC50 at GPIIb-IIIa was found to be 0.2 µM; in data set [1], 2.13 µM.
As to `N=C(N)c1ccc(C(=O)N2CCC3(CCC(CC(=O)O)CC3)CC2)cc1` [Example 2, (3-(4-(Aminoiminomethyl)benzoyl)-3-aza-spiro[5.5]undec-9-yl)acetic Acid Hydrochloride], the 50% inhibitory concentration (IC50) on GPIIb-IIIa stood at 0.0082 µM; in data set [1] it was 0.41 µM.
Take `O=C(O)CN1CCC2(CCN(CCC3CCNCC3)CC2)CC1` [Example 27, (9-(2-(Piperidin-4-yl)ethyl)-3,9-diazaspiro[5.5]undec-3-yl)acetic Acid Tristrifluoroacetate]: half-maximal inhibition in data set [1] (IC50) was put at 100 µM.
`CCOC(=O)CCCC(=O)N1CCC2(CC1)CC(c1ccc(C(=N)N)cc1)=NO2` [Example 16, Ethyl 5-(3-(4-(Aminoiminomethyl)phenyl)-1-oxa-2,8-diaza-spiro[4.]dec-2-en-8-yl)-5-oxopentanoate Hydrochloride] came in with an IC50 in data set [1] of 0.2 µM.
For `N=C(N)NCCCC(=O)N1CCC2(CC1)CN(CC(=O)O)C(=O)O2` [Example 37], the IC50 came out at 19 µM at GPIIb-IIIa and 52 µM in data set [1].
Compound `N=C(N)c1ccc(C2=NOC3(CCN(CC(=O)O)CC3)C2)cc1` [Example 6] displayed an IC50 in data set [1] of 4 µM.
Still for that read-out and setting: for `N=C(N)c1ccc(C2=NOC3(CCN(CCCCC(=O)O)CC3)C2)cc1` [Example 19] the value was 0.45 µM; for `N=C(N)c1ccc(C(=O)N2CCC3(CC2)NC(=O)N(CCCC(=O)O)C3=O)cc1` [Example 21, Trifluoroacetate], above 10 µM.
In the case of `N=C(N)c1ccc(C(=O)N2CCC3(CCN(C(=O)CCCC(=O)O)CC3)CC2)cc1` [Example 42, 5-((3-(4-Aminoiminomethyl)benzoyl)-3,9-diaza-spiro[5.5]undec-9-yl)-5-oxopentanoic Acid], the IC50 on GPIIb-IIIa stood at 3.5 µM; in data set [1] it was 10 µM.
`N=C(N)c1ccc(C(=O)N2CCC3(CC2)C(=O)N(CC(=O)O)C(=O)N3Cc2ccccc2)cc1` [Example 13, Trifluoroacetate] gave an IC50 in data set [1] above 100 µM.
